Measurements reported in ChEMBL document CHEMBL1201862, “PubChem BioAssay data set” (2004).
Where “and” joins values, the source holds several entries; their conditions need not be identical. Identical values can stand only once.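 Step 1: Grow cells in 96-well plates. Step 2: Expose to compound for 48 hours at 5 concentrations. Step 3: Interpolate endpoints linearly; if unreached, use highest concentration. GI50 is the concentration that inhibits growth by half.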 Calls of active or inactive are those of the source. Rule as the data show it: active = GI50 up to about 1.1 µM and inactive = higher.

Experiments:
Experiment in all cases: growth of human tumour cells (NCI), 48 h
[1] = test system: 786-0
[2] = test system: ACHN
[3] = test system: BT-549
[4] = test system: CAKI-1
[5] = test system: CCRF-CEM
[6] = test system: COLO 205
[7] = test system: DU-145
[8] = test system: EKVX
[9] = test system: HCC 2998
[10] = test system: HCT-116
[11] = test system: HCT-15
[12] = test system: HL-60
[13] = test system: HOP-62
[14] = test system: HOP-92
[15] = test system: HT-29
[16] = test system: Hs-578T
[17] = test system: IGROV-1
[18] = test system: K562
[19] = test system: KM12
[20] = test system: LOX IMVI
[21] = test system: M14
[22] = test system: MCF7
[23] = test system: MDA-MB-231
[24] = test system: MDA-MB-435
[25] = test system: MOLT-4
[26] = test system: NCI-H226
[27] = test system: NCI-H23
[28] = test system: NCI-H460
[29] = test system: NCI/ADR-RES
[30] = test system: OVCAR-4
[31] = test system: OVCAR-8
[32] = test system: PC-3
[33] = test system: RPMI-8226
[34] = test system: RXF 393
[35] = test system: SF-268
[36] = test system: SF-295
[37] = test system: SF-539
[38] = test system: SK-MEL-28
[39] = test system: SK-MEL-2
[40] = test system: SK-MEL-5
[41] = test system: SK-OV-3
[42] = test system: SNB-19
[43] = test system: SNB-75
[44] = test system: SR
[45] = test system: SW-620
[46] = test system: T47D
[47] = test system: TK-10
[48] = test system: U-251
[49] = test system: UACC-257
[50] = test system: UACC-62
[51] = test system: UO-31
[52] = test system: A498
[53] = test system: A549
[54] = test system: MDA-N
[55] = test system: OVCAR-3
[56] = test system: OVCAR-5
[57] = test system: SN12C

In the case of `COC(=O)[C@H](C)NC(=O)[C@H](NS(=O)(=O)c1nc2ccccc2s1)c1ccccc1`, the GI50 [1] is reported as 29.2 µM (inactive), the GI50 [2] is reported as 33.9 µM (inactive) and the GI50 [3] is reported as 34.7 µM (inactive). The GI50 [4] was 32.4 µM (inactive), the GI50 [5] was 34.4 µM (inactive) and the GI50 [6] was 13.1 µM (inactive). The GI50 [7] was 15.2 µM (inactive), the GI50 [8] was 47.6 µM (inactive) and the GI50 [9] was 20.1 µM (inactive). For the same compound, the GI50 [10] was 44.3 µM (inactive), the GI50 [11] was 23.3 µM and the GI50 [12] was 39.3 µM (inactive). For the same compound, the GI50 [13] was 29.4 µM (inactive), the GI50 [14] was 12.6 µM (inactive) and the GI50 [15] was 39.4 µM (inactive). The GI50 [16] was 8.2 µM (inactive), the GI50 [17] was 49.3 µM (inactive) and the GI50 [18] was 94.4 µM (inactive). The GI50 [19] was 14 µM (inactive), the GI50 [20] was 15.6 µM (inactive) and the GI50 [21] was 10.4 µM (inactive). The GI50 [22] was 34 µM (inactive), the GI50 [23] was 25.9 µM (inactive) and the GI50 [24] was 41 µM (inactive). The GI50 [25] was 29 µM (inactive), the GI50 [26] was 14.5 µM (inactive) and the GI50 [27] was 36.3 µM (inactive). The GI50 [28] was 24.9 µM (inactive), the GI50 [29] was 30.3 µM (inactive) and the GI50 [30] was 26.2 µM (inactive). For the same compound, the GI50 [31] was 16.7 µM (inactive), the GI50 [32] was 38.8 µM (inactive) and the GI50 [33] was 31 µM (inactive). The GI50 [34] was 16.9 µM (inactive), the GI50 [35] was 15.1 µM (inactive) and the GI50 [36] was 39.1 µM (inactive). The GI50 [37] was 15.6 µM (inactive), the GI50 [38] was 17 µM (inactive) and the GI50 [39] was 11.3 µM (inactive). The GI50 [40] was 15.8 µM (inactive), the GI50 [41] was 33.2 µM (inactive) and the GI50 [42] was 27.4 µM (inactive). The GI50 [43] was 18.6 µM (inactive), the GI50 [44] was 15.6 µM (inactive) and the GI50 [45] was 37.3 µM (inactive). The GI50 [46] was 15.3 µM (inactive), the GI50 [47] was 58.1 µM (inactive) and the GI50 [48] was 20.5 µM (inactive). For the same compound, the GI50 [49] was 12.9 µM (inactive), the GI50 [50] was 14.9 µM (inactive) and the GI50 [51] was 19.7 µM (inactive).
In the case of `COc1ccccc1/N=C1\SCCN1C(=S)Nc1ccc(S(=O)(=O)/N=C/N(C)C)cc1`, the GI50 [1] is reported as 44.2 µM (inactive), the GI50 [52] is reported as > 100 µM (inactive) and the GI50 [53] is reported as > 100 µM (inactive). The GI50 [2] was 32.4 µM (inactive), the GI50 [3] was 21.9 µM (inactive) and the GI50 [4] was 33.7 µM (inactive). For the same compound, the GI50 [5] was 38.3 µM (inactive), the GI50 [6] was 28.6 µM (inactive) and the GI50 [7] was 29.6 µM (inactive). The GI50 [8] was 20.9 µM (inactive), the GI50 [9] was > 100 µM (inactive) and the GI50 [10] was 41.7 µM (inactive). For the same compound, the GI50 [11] was 31.6 µM, the GI50 [12] was 27.4 µM (inactive) and the GI50 [13] was > 100 µM (inactive). The GI50 [14] was 27.9 µM (inactive), the GI50 [18] was 39.6 µM (inactive) and the GI50 [19] was > 100 µM (inactive). The GI50 [20] was 29.9 µM (inactive), the GI50 [21] was 51.5 µM (inactive) and the GI50 [22] was 26.1 µM (inactive). For the same compound, the GI50 [23] was > 100 µM (inactive), the GI50 [24] was 24.9 µM (inactive) and the GI50 [54] was 26.5 µM (inactive). For the same compound, the GI50 [25] was 22.6 µM (inactive), the GI50 [26] was > 100 µM (inactive) and the GI50 [27] was 27.1 µM (inactive). For the same compound, the GI50 [28] was > 100 µM (inactive), the GI50 [29] was 45 µM (inactive) and the GI50 [55] was 44 µM (inactive). For the same compound, the GI50 [30] was 43.2 µM (inactive), the GI50 [56] was 87.5 µM (inactive) and the GI50 [31] was 35.2 µM (inactive). For the same compound, the GI50 [32] was > 100 µM (inactive), the GI50 [33] was 21.6 µM (inactive) and the GI50 [34] was 16.6 µM (inactive). The GI50 [35] was 22.1 µM (inactive), the GI50 [36] was > 100 µM (inactive) and the GI50 [37] was 21.9 µM (inactive). The GI50 [38] was 30.1 µM (inactive), the GI50 [40] was 15.9 µM (inactive) and the GI50 [41] was > 100 µM (inactive). The GI50 [57] was 50.9 µM (inactive), the GI50 [42] was > 100 µM (inactive) and the GI50 [43] was 29.6 µM (inactive). The GI50 [45] was 44.9 µM (inactive), the GI50 [46] was 25.8 µM (inactive) and the GI50 [47] was 36 µM (inactive). For the same compound, the GI50 [48] was > 100 µM (inactive), the GI50 [49] was 36.1 µM (inactive) and the GI50 [50] was 25.7 µM (inactive). For the same compound, the GI50 [51] was 38.5 µM (inactive).
For `COc1ccc(-c2c(C#N)c(O)n(C3OC(COC(C)=O)C(OC(C)=O)C(OC(C)=O)C3OC(C)=O)c(=S)c2C#N)cc1` (stereo not drawn), the GI50 [1] was 31.7 µM (inactive) and 34 µM (inactive), the GI50 [52] was 30.3 µM (inactive) and 32.1 µM (inactive) and the GI50 [53] was > 100 µM (inactive). The GI50 [2] was 48.6 µM (inactive) and 54.8 µM (inactive), the GI50 [3] was 32.7 µM (inactive) and 24.8 µM (inactive) and the GI50 [4] was 31.4 µM (inactive) and 19.1 µM (inactive). For the same compound, the GI50 [5] was > 100 µM (inactive) and 67.8 µM (inactive), the GI50 [7] was 84.5 µM (inactive) and the GI50 [8] was 25.9 µM (inactive) and 37.3 µM (inactive). The GI50 [9] was 26.5 µM (inactive) and 25.1 µM (inactive), the GI50 [10] was 64 µM (inactive) and 67.3 µM (inactive) and the GI50 [11] was over 100 µM. The GI50 [12] was 22.2 µM (inactive) and 24.5 µM (inactive), the GI50 [13] was 31.6 µM (inactive) and 27 µM (inactive) and the GI50 [14] was 19 µM (inactive) and 17.8 µM (inactive). For the same compound, the GI50 [15] was > 100 µM (inactive), the GI50 [16] was 30.7 µM (inactive) and 32.1 µM (inactive) and the GI50 [19] was 65.9 µM (inactive). The GI50 [20] was 93.1 µM (inactive) and 51.5 µM (inactive), the GI50 [21] was > 100 µM (inactive) and the GI50 [22] was > 100 µM (inactive). For the same compound, the GI50 [26] was > 100 µM (inactive) and 72.8 µM (inactive), the GI50 [27] was 97.5 µM (inactive) and 79.4 µM (inactive) and the GI50 [28] was 68.7 µM (inactive) and 37.6 µM (inactive). For the same compound, the GI50 [29] was > 100 µM (inactive), the GI50 [30] was 29.1 µM (inactive) and 43.7 µM (inactive) and the GI50 [56] was > 100 µM (inactive). The GI50 [31] was 28.4 µM (inactive) and 36.6 µM (inactive), the GI50 [32] was 44.3 µM (inactive) and 66.5 µM (inactive) and the GI50 [34] was 32.1 µM (inactive) and 26 µM (inactive). The GI50 [35] was 25.1 µM (inactive) and 27.9 µM (inactive), the GI50 [37] was 55.2 µM (inactive) and 36.1 µM (inactive) and the GI50 [41] was 33.9 µM (inactive) and 28.6 µM (inactive). For the same compound, the GI50 [57] was 94.8 µM (inactive) and 67 µM (inactive), the GI50 [43] was 26.5 µM (inactive) and 18.9 µM (inactive) and the GI50 [45] was > 100 µM (inactive). For the same compound, the GI50 [46] was 21.5 µM (inactive) and 30.3 µM (inactive), the GI50 [47] was 31.6 µM (inactive) and 36.8 µM (inactive) and the GI50 [50] was 26 µM (inactive) and 25.7 µM (inactive). For the same compound, the GI50 [51] was 33.4 µM (inactive) and 26.1 µM (inactive).
